SMILES strings stand for the structures.

Data set [1] relates to HCT116 cells. As to the kind of experiment: Cell viability of polyploid cells after ABT-263. It counts as cell-based, human. Particulars: cells made polyploid with 200 nM AZD1152 (with or without washout); 1 μM ABT-263 for 24 hours; not in diploid cells. How it is done:
Cell viability was determined 72 hours post-transfection. The red curve represents a synergistic combination. […] HCT116 cells (FIG. 10C-FIG. 10F) were treated for 24 hours with DMSO or 200 nM AZD1152. AZD1152 was then either left in the culture medium (AZD 1152) or washed out by replacing the medium with drug-free growth medium (AZD 1152 washout).
Generally, cells were seeded at >90% viability (as determined by trypan blue exclusion) into 96-well plates overnight, treated with compounds or siRNAs for indicated duration, and the overall cell viability was determined by measuring luminescence.

Data set [2] concerns NCI-H146 human small cell lung carcinoma cells. As to the kind of experiment: Cellular efficacy in human tumor cell line (MTS viability assay). The format is cell-based. Particulars: NCI-H146; 10% human serum, 48 hours; Table 1; read-out: NCI-H146 Cellular Efficacy EC50. A digest of the protocol:
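Cells plated at 50,000/well in medium with 10% human serum in place of FBS. Treated with 2-fold serial dilutions from 10 μM to 0.020 μM, in duplicate, at least 3 separate runs. Viable cells measured by MTS after 48 h of compound exposure.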

Data set [3] has as its system mantle cell lymphoma. As to the kind of experiment: Oral efficacy of EXAMPLE 1 in combination therapy, antitumorigenesis on mantle cell lymphoma. It counts as in vivo.
Data set [4] in a line: Pharmacokinetic evaluation in rat. The format is in vivo. Particulars: male, Sprague-Dawley, plasma, single 5 mg/kg oral dose, Table 1, read-out: Pharmacokinetic area under the plasma concentration Curve (rat) AUC0-∞. A digest of the protocol: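 Male Sprague-Dawley rats (n=3/group) received a single 2 mg/kg IV (jugular slow bolus) or 5 mg/kg oral gavage dose in 10% DMSO/PEG-400; tail-vein plasma sampled to 24 h. Acetonitrile-precipitated plasma quantified by LC-MS/MS (LOQ 0.01 μg/mL); AUC0-∞ by linear trapezoidal rule plus Ct/β extrapolation.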

For data set [5], the system named is B-cell lymphoma. As to the kind of experiment: Oral efficacy of EXAMPLE 1 in combination therapy, antitumorigenesis on B-cell lymphoma. It counts as in vivo.

As usually defined, the EC50 is the concentration needed to bring the measured effect to its halfway point. As for `CC1(C)CCC(c2ccc(Cl)cc2)=C(CN2CCN(c3ccc(C(=O)NS(=O)(=O)c4ccc(N[C@H](CCN5CCOCC5)CSc5ccccc5)c(S(=O)(=O)C(F)(F)F)c4)cc3)CC2)C1` [Example 1, N-(4-(4-((2-(4-chlorophenyl)-5,5-dimethyl-1-cyclohex-1-en-1-yl)methyl)piperazin-1-yl)benzoyl)-4-(((1R)-3-(morpholin-4-yl)-1-((phenylsulfanyl)methyl)propyl)amino)-3-((trifluoromethyl)sulfonyl)benzenesulfonamide], the “cell viability of polyploid cells” value in data set [1] is given as “loss of viability”. In addition, in data set [2], the EC50 was found to be 89.1 nM. Moreover, the “efficacy of cytotoxic agents during combination therapy” value was “synergistically enhanced efficacy” in data set [3] (EXAMPLE 1 orally with rituximab with CHOP, VELCADE) and “synergistically enhanced efficacy” in data set [5] (EXAMPLE 1 orally with etoposide, vincristine, CHOP, rituximab, rapamycin). Further, the complete tumor regression came to 10% in data set [3] (combination of EXAMPLE 1 and bortexomib); 90% in data set [3] (combination of EXAMPLE 1 and rituximab with CHOP); 70% in data set [5] (combination of EXAMPLE 1 and rapamycin); 70% in data set [5] (combination of EXAMPLE 1 and rituximab); 10% in data set [5] (combination of EXAMPLE 1 and vincristine). Moreover, in data set [4], the AUC(0-inf) turned out to be 5.01 µM·h.

The values are drawn from patent US8624027B2, “Combination therapy for treating cancer and diagnostic assays for use therein” (AbbVie Inc., priority 2005, dated 2014).
